What all share (assay): inhibition of tumour cell growth, NCI panel, 48 h
Assay [1] relates to KM12 colon.
The subject of assay [2] is A549 NSCLC.
Assay [3] has as its system A498 renal.
For assay [4], the system named is MOLT-4 leukemia.
In assay [5] the test system is SW-620 colon.
The subject of assay [6] is M14 melanoma.
Assay [7] deals with SF-295 CNS.
Assay [8] concerns MALME-3M melanoma.
Assay [9] deals with PC-3 prostate.
Assay [10] has as its system T-47D breast.

Values joined by “and” are separate entries in the source; they are usually repeats but may differ in a detail not shown here. Equal values may be shown once.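 Cells were grown in 96-well plates and exposed to each compound for 48 hours at five concentrations; endpoints were interpolated linearly between bracketing concentrations, or set to the highest concentration if not reached. Abbreviation: GI50, concentration required for 50% inhibition of growth. The concentration for full growth arrest is given as TGI.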 Some results are limits rather than exact numbers.

The text below walks through data of PubChem BioAssay (NCI).

For `C[C@]12CC[C@@H]3c4ccc(OC(=O)N(CCCl)CCCl)cc4CC[C@H]3[C@@H]1CC[C@@H]2OP(=O)(O)O`, the GI50 in assay [1] is 40.3 µM; in assay [2], 48.8 µM; in assay [3], 16 µM; in assay [4], more than 59.3 µM; in [5] it was more than 80.7 µM; in assay [6] it was 37.7 µM. Moreover, the GI50 was 12.5 µM in [7], 83.5 µM in assay [8], 41.2 µM in [9] and more than 56.4 µM in assay [10]. Further, the TGI in assay [1] is more than 100 µM; in assay [2], more than 100 µM; in assay [3], 42.2 µM; in assay [4], more than 100 µM; in [5], more than 100 µM; in [6] it was more than 100 µM. The TGI in assay [7] is 32.5 µM; in [8], more than 100 µM; in assay [9], more than 100 µM; in assay [10], more than 100 µM.

With `COCCn1c2c([n+](Cc3cnccn3)c1C)C(=O)c1ccccc1C2=O`, the GI50 in assay [1] was 0.0376 µM; in [2], 0.0166 µM; in [3], 0.0987 µM; in assay [4], less than 0.01 µM; in assay [5] it was less than 0.01 µM; in assay [6], less than 0.0126 µM. In addition, the GI50 was 0.027 µM in assay [7], 0.126 µM in assay [8], less than 0.01 µM in assay [9] and 0.0246 µM in assay [10]. Also, the TGI worked out at 0.557 µM in assay [1]; 0.0434 µM in assay [2]; 0.573 µM in assay [3]; 0.034 µM in [4]; 0.0176 µM in assay [5]; 0.0505 µM in [6]. The TGI is 0.0843 µM in [7], 0.316 µM in [8], 0.0359 µM in assay [9] and 0.153 µM in assay [10].

Turning to `c1ccc(CC(Nc2cccnc2)c2ccccc2)cc1` (centres undefined), the TGI in [1] is 70.2 µM; in assay [2], more than 100 µM; in [3], more than 100 µM; in assay [4], 47.7 µM; in assay [5], more than 100 µM; in assay [6], 37.9 µM. The TGI in assay [7] was 43.3 µM; in assay [8] it was 72.4 µM; in assay [9], 76.9 µM; in [10] it was more than 100 µM.

As for `COC(=O)[C@]12CC[C@@H](C)[C@H](C)[C@@H]1C1=CC[C@@H]3[C@@](C)(CC#N)C4=C(C[C@@]3(C)[C@]1(C)CC2)OC[C@]4(C)C=O`, the GI50 in assay [1] was 6.46 µM; in [2] it was 10.2 µM; in assay [3], 14.7 µM; in assay [4], 2.1 µM; in assay [5], 4.16 µM; in assay [6] it was 3.46 µM. In addition, the GI50 in [7] is 13.2 µM; in assay [8] it was 4.76 µM; in assay [9], 3.31 µM; in [10] it was 2.77 µM. Further, the TGI in [1] stood at 62.9 µM; in assay [2], 25 µM; in assay [3], 28.7 µM; in assay [4] it was 6.89 µM; in assay [5] it was 30.6 µM; in assay [6], 19.9 µM. Also, the TGI was determined as 40.6 µM in [7], 27.8 µM in assay [8], 73.7 µM in assay [9] and 16.1 µM in assay [10].

Turning to `O=C(/C=C/C=C/c1ccc2c(c1)OCO2)N/N=C\c1ccc(O)cc1O`, the GI50 in assay [1] was 2.92 µM; in [2], 2.93 µM; in assay [3], 2.07 µM; in [4], 1.41 µM; in [5], 2.83 µM; in [6], 1.67 µM. Moreover, the GI50 in assay [7] is 0.925 µM; in [8] it was 2.03 µM; in assay [9] it was 2.86 µM; in [10], 2.55 µM. In addition, the TGI is 20.6 µM in assay [1]; 33.8 µM in [2]; 7.15 µM in [3]; 18.8 µM in assay [4]; 19.9 µM in assay [5]; 11.5 µM in assay [6]. Besides, the TGI in assay [7] is 12.9 µM; in [8], 10.5 µM; in [9], 23.1 µM; in [10] it was 24 µM.

Take `CCC(C)C1NC(=O)C(NC(=O)C(CC(C)C)N(C)C(=O)[C@@H]2CC(O)CN2C(=O)[C@H](C)O)C(C)OC(=O)[C@H](Cc2ccc(OC)cc2)N(C)C(=O)[C@@H]2CCCN2C(=O)[C@H](CC(C)C)NC(=O)C(C)C(=O)[C@H](C(C)C)OC(=O)CC1O` (some centres undefined): the GI50 is less than 0.01 µM in [1]; 0.0277 µM in assay [2]; 0.325 µM in [3]; 0.0142 µM in assay [4]; 0.0581 µM in [5]; 0.0114 µM in assay [6]. For the same compound, the GI50 in [7] was 0.0268 µM; in assay [8], 0.013 µM; in assay [9] it was 0.0603 µM; in [10] it was 0.0137 µM. Further, the TGI in assay [1] is 0.735 µM and 0.173 µM; in assay [2], 1.91 µM; in assay [3], 4.84 µM and 3.01 µM; in assay [5], 2.3 µM and 0.919 µM; in assay [6], 0.762 µM and 0.202 µM; in assay [7], 2.05 µM and 0.388 µM. Moreover, the TGI in assay [8] is 1.07 µM and 0.185 µM; in [9] it was 1.83 µM and 0.416 µM; in [10] it was 0.71 µM and 2.07 µM.

For `O=C(CCN1CCCN(c2cnc3ccccc3n2)CC1)c1csc2ccccc12`, the GI50 in assay [1] was 16 µM; in assay [2], more than 100 µM; in assay [3], 96.7 µM; in [4], 26 µM; in assay [5], 17.4 µM; in [6], 19.8 µM. Further, the GI50 in assay [7] is 58 µM; in assay [8], 18 µM; in assay [9], 21.3 µM; in assay [10] it was 11 µM. For the same compound, the TGI in [1] was 29.4 µM; in assay [2] it was more than 100 µM; in assay [3] it was more than 100 µM; in assay [4], 57.9 µM; in assay [5], 33.3 µM; in [6] it was 39.3 µM. Moreover, the TGI in assay [7] was more than 100 µM; in assay [8], 32.1 µM; in [9], 50.6 µM; in [10], 25.3 µM.
